Consider five molecules from US7638140B2, “Adhesive mixture for transdermal delivery of highly plasticizing drugs” (priority 1997, dated 2009).

Structures can show the parent of a compound that is named as a salt.

The conditions of data set [1]: free base form of the drug named as HCl salt; cited from earlier work.
A short description of another data set: pH. It counts as physicochemical.

On to `C#CCN(C)[C@H](C)Cc1ccccc1` [Selegiline free base, selegiline], for which the solubility in water result in the data set “Solubility in water” is listed as “only sparingly soluble in water”.

`C#CCN(C)[C@H](C)Cc1ccccc1` [selegiline-HCl]: the solubility in water result in “Solubility in water” was “readily soluble in water”.

Regarding `Clc1cccc(Cl)c1N=C1NCCN1` [clonidine-HCl], the “pKb of the free base form” value in data set [1] is given as 7.

Take phenylpropranolol-HCl: in “pH” (free base form), the “pH of the free base form” value is “approximately 13”.

On to `CCN(CC)CC` [Triethylamine], for which, in “pH”, the “calculated pH” value is on record as “approximately 13.7” and the “measured pH” value is reported as “approximately 11.7”.
